Among the data in PubChem BioAssay (NCI) are TGI and GI50 values, retold here.

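48-hour exposure; five concentrations; linearly interpolated endpoints. GI50: concentration for 50% inhibition of growth. TGI: total growth inhibition.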

Assay in all cases: NCI tumour cell line growth inhibition, 48 h
Experiment [1] deals with OVCAR-4 ovarian.
The subject of experiment [2] is HCT-116 colon.
Experiment [3] has as its system NCI-H226 lung.
Experiment [4] concerns U251 CNS.
In experiment [5] the test system is NCI-H522 lung.
Experiment [6] deals with HS 578T breast.
Experiment [7] has as its system K-562 leukemia.
Experiment [8] deals with M14 melanoma.
The test system of experiment [9] is A549 NSCLC.
For experiment [10], the system named is SNB-75 CNS.

As to `S=C(N1CCN(c2cccc(Cl)c2)CC1)N1CCN(c2cccc(Cl)c2)CC1`, the TGI in experiment [1] is over 100 µM; in [2], over 100 µM; in [3], 88.4 µM; in experiment [4] it was over 100 µM; in [5] it was over 100 µM; in experiment [6], 66.6 µM. Besides, the TGI in [7], in [8] and in experiment [9] was over 100 µM throughout.
In the case of `COc1ccc(C2C3CCCC(C3=O)C(c3ccc(OC)cc3)N2N=O)cc1` (stereo not drawn), the TGI was 45 µM in experiment [1]; over 74.9 µM in experiment [2]; 61.6 µM in experiment [3]; over 100 µM in experiment [4]; 62.4 µM in [10]; 34.6 µM in [5]. The TGI was over 66 µM in experiment [7] and over 88.2 µM in [9].
For `O=C(OC/C=C1C=C(OC(=O)c2ccccc2)/C(=N/N(C(=O)c2ccccc2)c2ccccc2)O\1)c1ccccc1`, the TGI was determined as 22.1 µM in experiment [1]; 18.3 µM in experiment [2]; 54.1 µM in experiment [3]; 19.3 µM in experiment [4]; 37.9 µM in experiment [10]; 11.8 µM in experiment [7]. The TGI in experiment [8] turned out to be 18.7 µM; in experiment [9] it was 22.6 µM. The GI50 in [10] is 18.5 µM.
Turning to `Cc1c(N2C(=O)/C(=C/c3ccc(N(CCC#N)CCC#N)cc3)N=C2c2ccccc2)c(=O)n(-c2ccccc2)n1C`, the TGI in experiment [1], in experiment [2], in experiment [3], in experiment [4], in experiment [6] and in experiment [8] was over 100 µM throughout. Further, the TGI in experiment [9] was over 100 µM.
With `N#CCN(CC#N)C1CC=CCC1N(CC#N)CC#N` (stereo not drawn), the TGI in experiment [1], in experiment [2], in experiment [3], in experiment [4], in [5] and in experiment [6] was over 100 µM each time. In addition, the TGI in experiment [7], in [8] and in [9] was over 100 µM in each case.
`COc1ccc(C(=O)N/N=C/c2c(C)n(C)n(-c3ccccc3)c2=O)cc1`: the TGI in experiment [1], in [2], in [3], in experiment [4], in experiment [10] and in experiment [5] was over 100 µM each time. Also, the TGI in experiment [7], in experiment [8] and in [9] was over 100 µM throughout.
For the compound `CCCN1C(=O)/C(=C\c2ccc(OC)c(OC)c2)SC1=Nc1ccccc1`, the TGI in [1], in experiment [2], in [3], in [4], in [5] and in experiment [6] was over 100 µM each time. The TGI in [7], in [8] and in [9] was over 100 µM throughout.
Turning to `CCOC(=O)c1c(N2CCCC2)ncn(C)c1=S`, the TGI in experiment [1], in [2], in experiment [3], in experiment [4], in [5] and in experiment [6] was over 100 µM in each case. In addition, the TGI in experiment [7], in experiment [8] and in [9] was over 100 µM each time.
`CC[C@H](C)C1=C(O)[N@+]2([O-])Oc3ccc(-c4c(O)c(O)c(-c5ccc(O)cc5)c(OC(C)=O)c4OC(C)=O)cc3O[C@]2([C@@H](C)CC)C(=O)N1O`: the TGI in experiment [1] was 36.2 µM; in experiment [2], 20.2 µM; in experiment [4] it was over 50 µM; in experiment [5], 17.4 µM; in [6], over 50 µM; in experiment [7] it was over 50 µM. Also, the TGI in experiment [8] and in experiment [9] was over 50 µM throughout.
For the compound `COc1nc2c(c(=O)n1C)N=C(c1ccc(Cl)cc1)CC(c1ccccc1)N2` (stereo not drawn), the TGI is 48.5 µM in [1]; 63.5 µM in experiment [2]; 45.6 µM in [3]; over 100 µM in experiment [4]; 46.7 µM in experiment [10]; 44.9 µM in experiment [5]. In addition, the TGI in experiment [7] is 54.2 µM; in [8] it was over 100 µM; in experiment [9] it was over 100 µM.
`CCn1c2c(c3ccccc31)C(c1ccccc1)CC1C(=O)N(c3ccccc3)C(=O)C21` (stereo not drawn): the TGI in experiment [1] was over 100 µM; in experiment [2] it was over 100 µM; in [3], over 100 µM; in [10], 59.6 µM; in experiment [5], over 100 µM; in experiment [7], over 100 µM. Also, the TGI in [8] and in [9] was over 100 µM throughout.
`COc1ccc2nc3n(c2c1)C(=O)c1ccccc1-3`: the TGI in experiment [1], in experiment [2], in [3], in [4], in experiment [10] and in experiment [5] was over 100 µM in each case. Also, the TGI in [7], in [8] and in experiment [9] was over 100 µM each time.
As to `CCn1c2ccccc2c2ccc(C3C(C(=O)OC)=C(C)NC(C)=C3C(=O)OC)cc21`, the TGI in experiment [1], in experiment [2], in experiment [3], in experiment [4], in experiment [10] and in experiment [7] was over 100 µM in each case. In addition, the TGI in [9] was over 100 µM.
As for `CCCN(CCC)c1c([N+](=O)[O-])cc(C(=O)N(CCO)CCO)cc1[N+](=O)[O-]`, the TGI in experiment [1], in experiment [2], in experiment [3], in experiment [4], in experiment [10] and in experiment [5] was over 100 µM in each case. For the same compound, the TGI in experiment [7], in experiment [8] and in [9] was over 100 µM throughout.
As to `C=CCCCCOC1C=CC(O)C(CO)O1` (stereo not drawn), the TGI in [1], in experiment [2], in [3], in experiment [4], in [5] and in experiment [6] was over 100 µM in each case. Moreover, the TGI in experiment [7], in [8] and in [9] was over 100 µM each time.
